Results as given in the NIST ThermoML archive (doi:10.1021/je0500431).

Assay: xn = mol fraction of the nth substance listed
Details: Ring tensiometer

OCc1ccccc1 [benzenemethanol] + CCCCCO
surface tension liquid-gas [mN/m]
Details	x2 = 0	x2 = 0.0037	x2 = 0.0052	x2 = 0.0083	x2 = 0.0117	x2 = 0.0213	x2 = 0.0336	x2 = 0.0536
293.15 K	39.05	36.88	36.73	36.56	36.35	35.93	35.63	35.22
298.15 K	38.58	36.41	36.34	36.12	35.93	35.5	35.21	34.76
303.15 K	38.12	36.05	35.92	35.73	35.5	35.05	34.79	34.31
308.15 K	37.63	35.64	35.51	35.28	35.1	34.64	34.35	33.8
313.15 K	37.16	35.26	35.1	34.86	34.69	34.24	33.95	33.34
318.15 K	36.63	34.86	34.7	34.47	34.29	33.82	33.52	32.95
323.15 K	36.18	34.47	34.31	34.03	33.89	33.4	33.08	32.43

CCCO [propan-1-ol] + OCc1ccccc1
x1 = 1
Details	surface tension liquid-gas [mN/m]
293.15 K	23.73
298.15 K	23.3
303.15 K	22.9
308.15 K	22.52
313.15 K	22.1
318.15 K	21.68
323.15 K	21.27

CCC(C)O (stereo not given) [butan-2-ol] + OCc1ccccc1
x1 = 1
Details	surface tension liquid-gas [mN/m]
293.15 K	23.18
298.15 K	22.74
303.15 K	22.38
308.15 K	21.94
313.15 K	21.56
318.15 K	21.11
323.15 K	20.76
